Here are results for two molecules from publication PMC6167049, “Structural and catalytic properties of the peroxygenase P450 enzyme CYP152K6 from Bacillus methanolicus” (Journal of Inorganic Biochemistry, 2018).

Test [1] deals with T1, CYP152K6 (Bacillus methanolicus, UniProt I3DZK9).
T1 construct: gene cypC; codon-optimised synthetic gene in pET24b, E. coli BL21 (DE3); N-terminal 6xHis-tag cut with TEV protease; monomer; 417 residues in crystal model; co-purifies with tetradecanoic acid
Description: X-band EPR and UV-visible spectroscopy. Type of test: binding. The conditions noted are these: ferric enzyme; EPR at 10 K, 1 and 2 mM ligand; UV-visible with 400 μM ligand, pH 8.0, 25 °C; H2O2-driven turnover also tested.

Test [2] deals with T1, CYP152K6. The test can be described thus: X-ray crystal structure, […] Å. Type of test: binding. The conditions noted are these: co-purified from E. coli, bound above heme at Arg244; pH 8.0 protein buffer.

T1 sequence (I3DZK9 whole entry): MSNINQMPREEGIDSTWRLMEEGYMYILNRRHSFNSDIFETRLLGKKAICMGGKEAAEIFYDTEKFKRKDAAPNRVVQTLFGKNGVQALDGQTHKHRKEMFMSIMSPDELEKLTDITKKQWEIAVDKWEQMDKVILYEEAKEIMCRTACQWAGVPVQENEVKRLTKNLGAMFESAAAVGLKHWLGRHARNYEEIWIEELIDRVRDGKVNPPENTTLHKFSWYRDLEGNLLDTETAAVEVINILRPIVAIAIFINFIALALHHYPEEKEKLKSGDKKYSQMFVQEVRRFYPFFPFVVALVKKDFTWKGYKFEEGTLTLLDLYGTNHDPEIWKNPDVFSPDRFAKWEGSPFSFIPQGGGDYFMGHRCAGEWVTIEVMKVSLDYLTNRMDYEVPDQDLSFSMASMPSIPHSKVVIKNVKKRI

As to `CCCCCCCCCCCC(=O)O` [dodecanoic acid], the “X-band EPR and UV-visible spectroscopy” value on CYP152K6 [1] was “the addition of dodecanoic acid alters the equilibria between the three major components”.

With `CCCCCCCCCCCCCC(=O)O` [tetradecanoic acid], at CYP152K6 [2], the “X-ray crystal structure, 1.3 Å” value was “The final model of CYP152K6 in complex with tetradecanoic acid has been deposited”.
